Assays:
Phytophthora infestans = assay type: in vivo; details: 20 ppm of the active substance; test a) or b) not distinguished
Plasmopara viticola = details: 20 ppm of the active substance, vines

`CCO/N=C(/C(C)=NOCc1ccccc1C(=NOC)C(=O)OC)c1ccc(OCc2cccc(C(F)(F)F)c2)cc1` showed a melting point of 68 to 70 °C.

In the case of `CCCCOc1ccc(C(=NOC)C(C)=NOCc2ccccc2C(=COC)C(=O)OC)cc1` (mixture of isomers) [Compound 1.33], the suppression of infestation (Phytophthora infestans) is reported as “completely suppressed” and the curative action (Plasmopara viticola) is reported as “complete curative action”.

In the case of `COC=C(C(=O)OC)c1ccccc1CON=C(C)C(=NOC)c1ccc(OCC2CC2(Cl)Cl)c(F)c1` (single isomer, unassigned) [Compound 1.4], the suppression of infestation (Phytophthora infestans) is reported as “completely suppressed” and the curative action (Plasmopara viticola) is reported as “complete curative action”.

For `COC=C(C(=O)OC)c1ccccc1CON=C(C)C(=NOC)c1ccc(OCC2CC2(Cl)Cl)c(Cl)c1` (single isomer, unassigned) [Compound 1.19], the suppression of infestation (Phytophthora infestans) was “completely suppressed”.

In the case of `COC=C(C(=O)OC)c1ccccc1CON=C(C)C(=NOC)c1ccc(OCC2CC2(Cl)Cl)c(Cl)c1` (single isomer, unassigned) [Compound 1.20], the suppression of infestation (Phytophthora infestans) is reported as “completely suppressed”.

With `CCC(C)Oc1ccc(C(=NOC)C(C)=NOCc2ccccc2C(=COC)C(=O)OC)cc1` (single isomer, unassigned) [Compound 1.29] the curative action (Plasmopara viticola) was “complete curative action”.

In the case of `CCC(C)Oc1ccc(C(=NOC)C(C)=NOCc2ccccc2C(=COC)C(=O)OC)cc1` (single isomer, unassigned) [Compound 1.30], the suppression of infestation (Phytophthora infestans) is reported as “completely suppressed” and the curative action (Plasmopara viticola) is reported as “complete curative action”.

For `COC=C(C(=O)OC)c1ccccc1CON=C(C)C(=NOC)c1cc(F)ccc1C` (single isomer, unassigned) [Compound 1.52], the curative action (Plasmopara viticola) was “complete curative action”.

In the case of `CCCOc1ccc(C(=NOC)C(C)=NOCc2ccccc2C(=COC)C(=O)OC)c(F)c1` (single isomer, unassigned) [Compound 1.63B], the curative action (Plasmopara viticola) is reported as “complete curative action”.

For `CCCCOc1ccc(C(=NOC)C(C)=NOCc2ccccc2C(=COC)C(=O)OC)c(F)c1` (single isomer, unassigned) [Compound 1.71A], the curative action (Plasmopara viticola) was “complete curative action”.

In the case of `CCCCOc1ccc(C(=NOC)C(C)=NOCc2ccccc2C(=COC)C(=O)OC)c(F)c1` (single isomer, unassigned) [Compound 1.71B], the curative action (Plasmopara viticola) is reported as “complete curative action”.

For `COC=C(C(=O)OC)c1ccccc1CON=C(C)C(=NOC)c1ccc(OC(C)C)cc1F` (single isomer, unassigned) [Compound 1.73A], the curative action (Plasmopara viticola) was “complete curative action”.

In the case of `COC=C(C(=O)OC)c1ccccc1CON=C(C)C(=NOC)c1ccc(OC(C)C)cc1F` (single isomer, unassigned) [Compound 1.73B], the curative action (Plasmopara viticola) is reported as “complete curative action”.

For `CCC(C)Oc1ccc(C(=NOC)C(C)=NOCc2ccccc2C(=COC)C(=O)OC)c(F)c1` (single isomer, unassigned) [Compound 1.75A], the suppression of infestation (Phytophthora infestans) was “completely suppressed”.

In the case of `COC=C(C(=O)OC)c1ccccc1CON=C(C)C(=NOC)c1ccc(OC)cc1C` (single isomer, unassigned) [Compound 1.78], the curative action (Plasmopara viticola) is reported as “complete curative action”.

In the case of `COC=C(C(=O)OC)c1ccccc1CON=C(C)C(=NOC)c1ccc(OCC2CC2(Cl)Cl)c(F)c1` (stereo not drawn) [Compound 1.3, (2-{2-[4-(2,2-Dichloro-cyclopropylmethoxy)-3-fluoro-phenyl]-2-methoxyimino-1-methyl-ethylideneaminooxymethyl}phenyl)-3-methoxy-acrylic acid methyl ester], the suppression of infestation (Phytophthora infestans) is reported as “completely suppressed” and the curative action (Plasmopara viticola) is reported as “complete curative action”.

With `COC=C(C(=O)OC)c1ccccc1CON=C(C)C(=NOC)c1cc(F)c(OCC2CC2(Cl)Cl)cc1F` (stereo not drawn) [Compound 1.13, (2-{2-[4-(2,2-Dichloro-cyclopropylmethoxy)-2,5-difluoro-phenyl]-2-methoxyimino-1-methyl-ethylideneaminooxymethyl}-phenyl)-3-methoxy-acrylic acid methyl ester] the suppression of infestation (Phytophthora infestans) was “completely suppressed” and the curative action (Plasmopara viticola) was “complete curative action”.

For `COC=C(C(=O)OC)c1ccccc1CON=C(C)C(=NOC)c1ccc(OCC(C)C)cc1` [Compound 1.31, {2-[2-(4-Isobutoxy-phenyl)-2-methoxyimino-1-methyl-ethylideneaminooxymethyl]-phenyl}-3-methoxy-acrylic acid methyl ester], the suppression of infestation (Phytophthora infestans) was “completely suppressed” and the curative action (Plasmopara viticola) was “complete curative action”.

For `CCC(C)Oc1ccc(C(=NOC)C(C)=NOCc2ccccc2C(=NOC)C(=O)OC)cc1` (stereo not drawn) [Compound 2.21], the curative action (Plasmopara viticola) was “complete curative action”.

With `CON=C(C(C)=NOCc1ccccc1C(=NOC)C(=O)OC)c1ccc(OCC(C)C)cc1` [Compound 2.22] the curative action (Plasmopara viticola) was “complete curative action”.

In the case of `CON=C(C(C)=NOCc1ccccc1C(=NOC)C(=O)OC)c1ccc(Oc2cccc(Br)c2)cc1` [Compound 2.25], the curative action (Plasmopara viticola) is reported as “complete curative action”.

In the case of `CON=C(C(C)=NOCc1ccccc1C(=NOC)C(=O)OC)c1ccc(Oc2ccc(C)cc2)cc1` [Compound 2.27], the suppression of infestation (Phytophthora infestans) is reported as “completely suppressed” and the curative action (Plasmopara viticola) is reported as “complete curative action”.

For `CON=C(C(C)=NOCc1ccccc1C(=NOC)C(=O)OC)c1cccc(Oc2cccc(F)c2)c1` [Compound 2.32], the suppression of infestation (Phytophthora infestans) was “completely suppressed”.

In the case of `CON=C(C(C)=NOCc1ccccc1C(=NOC)C(=O)OC)c1ccc(OC[Si](C)(C)C)cc1` [Compound 2.33], the curative action (Plasmopara viticola) is reported as “complete curative action”.

In the case of `CCCOc1ccc(C(=NOC)C(C)=NOCc2ccccc2C(=NOC)C(=O)OC)c(F)c1` [Compound 2.45, 2-Methoxyimino-(2-{2-methoxyimino-1-methyl-2-[2-fluoro-4-n-propoxy-phenyl]-ethylideneaminooxymethyl}-phenyl)-acetic acid methyl ester], the curative action (Plasmopara viticola) is reported as “complete curative action”.

With `CCOc1ccc(C(=NOC)C(C)=NOCc2ccccc2C(=NOC)C(=O)OC)c(F)c1` [Compound 2.49, 2-Methoxyimino-(2-{2-methoxyimino-1-methyl-2-[2-fluoro-4-ethoxy-phenyl]-ethylideneaminooxymethyl}-phenyl)-acetic acid methyl ester] the curative action (Plasmopara viticola) was “complete curative action”.

In the case of `CCC(C)Oc1ccc(C(=NOC)C(C)=NOCc2ccccc2C(=NOC)C(=O)OC)c(F)c1` (stereo not drawn) [Compound 2.55], the suppression of infestation (Phytophthora infestans) is reported as “completely suppressed” and the curative action (Plasmopara viticola) is reported as “complete curative action”.

In the case of `CON=C(C(C)=NOCc1ccccc1C(=NOC)C(=O)OC)c1ccc(OC)cc1C` [Compound 2.58], the suppression of infestation (Phytophthora infestans) is reported as “completely suppressed” and the curative action (Plasmopara viticola) is reported as “complete curative action”.

For `CCC(C)Oc1ccc(C(=NOC)C(C)=NOCc2ccccc2C(=NOC)C(=O)NC)cc1` (stereo not drawn) [Compound 3.21], the curative action (Plasmopara viticola) was “complete curative action”.

In the case of `CNC(=O)C(=NOC)c1ccccc1CON=C(C)C(=NOC)c1ccc(OCC(F)(F)F)cc1` [Compound 3.43], the curative action (Plasmopara viticola) is reported as “complete curative action”.

For `CCCOc1ccc(C(=NOC)C(C)=NOCc2ccccc2C(=NOC)C(=O)NC)c(F)c1` [Compound 3.46, 2-Methoxyimino-2-(2-{2-methoxyimino-1-methyl-2-[2-fluoro-4-n-propoxy-phenyl]-ethylideneaminooxymethyl}-phenyl)-N-methyl-acetamide], the curative action (Plasmopara viticola) was “complete curative action”.

For `CCC(C)Oc1ccc(C(=NOC)C(C)=NOCc2ccccc2C(=NOC)C(=O)NC)c(F)c1` (stereo not drawn) [Compound 3.56], the suppression of infestation (Phytophthora infestans) was “completely suppressed” and the curative action (Plasmopara viticola) was “complete curative action”.

With `CCOc1ccc(C(=NOC)C(C)=NOCc2ccccc2C(=NOC)C(=O)NC)c(C)c1` [Compound 3.60, 2-Methoxyimino-2-(2-{2-methoxyimino-1-methyl-2-[4-ethoxy-2-methyl-phenyl]-ethylideneaminooxymethyl}-phenyl)-N-methyl-acetamide] the suppression of infestation (Phytophthora infestans) was “completely suppressed”.

In the case of `COC=C(C(=O)OC)c1ccccc1CON=C(C)C(=NOCC=C(Cl)Cl)c1ccc(OC)cc1` [Compound 4.3], the suppression of infestation (Phytophthora infestans) is reported as “completely suppressed” and the curative action (Plasmopara viticola) is reported as “complete curative action”.

With `CCCOc1ccc(C(=NOCC)C(C)=NOCc2ccccc2C(=COC)C(=O)OC)cc1` [Compound 4.57] the suppression of infestation (Phytophthora infestans) was “completely suppressed” and the curative action (Plasmopara viticola) was “complete curative action”.

With `CCCOc1ccc(C(=NOCC)C(C)=NOCc2ccccc2C(=NOC)C(=O)OC)cc1` [Compound 4.58] the curative action (Plasmopara viticola) was “complete curative action”.

In the case of `CCCON=C(C(C)=NOCc1ccccc1C(=COC)C(=O)OC)c1ccc(OCCC)cc1` [Compound 4.60], the suppression of infestation (Phytophthora infestans) is reported as “completely suppressed” and the curative action (Plasmopara viticola) is reported as “complete curative action”.

In the case of `C#CCON=C(C(C)=NOCc1ccccc1C(=NOC)C(=O)NC)c1ccc(OCCC)cc1` [Compound 4.65], the curative action (Plasmopara viticola) is reported as “complete curative action”.

Source: US6420423B1 (priority 1995, dated 2002)
